Measurements as given in ChEMBL document CHEMBL1201862, “PubChem BioAssay data set” (2004).
Activity calls are given as the source filed them.

Key:
[1] = biological target: Prothrombin (Homo sapiens, UniProt P00734); assay: Thrombin 1536 HTS Dose Response Confirmation. [Related pubchem assays: 1046 (Thrombin 1536 HTS; hits were confirmed in this assay)]; assay type: functional
[2] = biological target: Large T antigen (Simian virus 40, UniProt P03070); assay type: functional, Betapolyomavirus macacae;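 further: Confirmatory-stage PubChem screen for compounds that inhibit SV40 T antigen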
Large T antigen, sequence (P03070 whole entry): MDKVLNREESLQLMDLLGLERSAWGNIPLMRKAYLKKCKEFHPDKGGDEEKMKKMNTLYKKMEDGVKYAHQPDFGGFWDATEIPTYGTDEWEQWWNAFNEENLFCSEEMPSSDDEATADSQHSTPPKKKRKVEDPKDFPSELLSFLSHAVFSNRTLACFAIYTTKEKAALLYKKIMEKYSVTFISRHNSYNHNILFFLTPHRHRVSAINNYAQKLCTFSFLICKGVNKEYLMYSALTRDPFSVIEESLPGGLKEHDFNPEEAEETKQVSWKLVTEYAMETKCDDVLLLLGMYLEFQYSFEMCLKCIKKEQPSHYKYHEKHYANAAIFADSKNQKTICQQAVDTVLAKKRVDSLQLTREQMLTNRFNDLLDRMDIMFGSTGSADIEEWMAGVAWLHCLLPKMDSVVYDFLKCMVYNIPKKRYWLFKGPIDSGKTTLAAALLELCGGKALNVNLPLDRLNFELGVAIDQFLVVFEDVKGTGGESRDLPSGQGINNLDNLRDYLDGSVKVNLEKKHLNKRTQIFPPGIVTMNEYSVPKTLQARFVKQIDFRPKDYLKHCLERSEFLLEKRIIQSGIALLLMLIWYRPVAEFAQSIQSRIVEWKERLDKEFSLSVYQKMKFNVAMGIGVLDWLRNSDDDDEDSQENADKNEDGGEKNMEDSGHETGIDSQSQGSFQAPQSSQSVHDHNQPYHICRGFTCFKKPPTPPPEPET

[3] = cytotoxicity in HEK-293T cells, dose response, cytotoxicity control for BCR NF-kB inhibitor project, luminescence, B-cell screen hits (AID 489021); assay type: functional, cell-based;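 further: HEK-293T cells carrying an NF-kB luciferase reporter; cells exposed to compound for about 14 hours before viability readout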
[4] = test system: BJ; assay: cytotoxicity toward BJ-TERT-LT-ST fibroblasts, dose response, cell-based, RAS-independent, luminescence (AID 1935); assay type: functional; details: Homo sapiens;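 further: BJ fibroblasts immortalized with TERT plus LT and ST oncogenes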
[5] = Luminescence Cell-Based Dose Retest to Confirm Inhibitors of Cancer Stem Cells. [Related pubchem assays (depositor defined):AID2717, AID2721]; assay type: functional; details: Homo sapiens
[6] = cytotoxicity toward DRD oncogenic fibroblasts, dose response, cell-based, non-viral oncogenic, luminescence (AID 1934); assay type: functional; details: Homo sapiens
[7] = test system: BJ; assay: cytotoxicity toward BJ-TERT fibroblasts, dose response, cell-based, RAS-independent, luminescence (AID 1933); assay type: functional; details: Homo sapiens
[8] = test system: BJ; assay: cells; assay type: functional, cell-based; details: Homo sapiens
[9] = cytotoxicity in HEK-293T cells, dose response, cytotoxicity control for TCR NF-kB inhibitor project, luminescence, T-cell screen hits (AID 489026); assay type: functional, cell-based;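 further: cells exposed to compound about 14 hours before the viability readout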
[10] = biological target: T1, Heat shock factor protein 1 (Mus musculus, UniProt P38532); assay: inhibition of MG132-induced HSE-luciferase signal, confirmation, cell-based, NIH3T3, luminescence, dose retest (AID 2382); assay type: functional;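 further: NIH3T3 fibroblasts with HSF1-driven luciferase reporter stressed by proteasome inhibitor MG132; luminescence from HSF1-driven luciferase expression after 8 hours of MG132 stress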
T1 sequence (P38532 whole entry): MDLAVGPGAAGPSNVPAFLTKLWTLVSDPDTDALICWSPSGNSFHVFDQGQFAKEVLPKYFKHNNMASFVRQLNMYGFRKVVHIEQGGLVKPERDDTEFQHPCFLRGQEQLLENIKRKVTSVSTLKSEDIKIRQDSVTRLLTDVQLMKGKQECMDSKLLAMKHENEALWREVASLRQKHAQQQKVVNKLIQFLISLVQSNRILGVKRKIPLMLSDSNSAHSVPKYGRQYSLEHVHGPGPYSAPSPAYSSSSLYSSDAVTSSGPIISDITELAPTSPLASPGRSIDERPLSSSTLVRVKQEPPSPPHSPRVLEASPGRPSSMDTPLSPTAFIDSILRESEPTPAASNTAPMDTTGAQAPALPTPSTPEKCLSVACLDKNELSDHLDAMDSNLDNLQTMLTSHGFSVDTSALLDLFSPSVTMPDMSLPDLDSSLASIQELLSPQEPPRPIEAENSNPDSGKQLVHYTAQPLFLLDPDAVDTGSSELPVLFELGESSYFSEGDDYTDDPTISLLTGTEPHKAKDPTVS

[11] = microbe, parasite or virus in culture; assay type: functional; details: Mycobacterium tuberculosis
[12] = biological target: DNA dC->dU-editing enzyme APOBEC-3G (Homo sapiens, UniProt Q9HC16); assay: Dose Response confirmation of small molecule APOBEC3G DNA Deaminase Inhibitors via a fluorescence-based single-stranded DNA deaminase assay. [Related pubchem assays (depositor defined):AID493012, AID493028]; assay type: functional
DNA dC->dU-editing enzyme APOBEC-3G, sequence (Q9HC16 whole entry): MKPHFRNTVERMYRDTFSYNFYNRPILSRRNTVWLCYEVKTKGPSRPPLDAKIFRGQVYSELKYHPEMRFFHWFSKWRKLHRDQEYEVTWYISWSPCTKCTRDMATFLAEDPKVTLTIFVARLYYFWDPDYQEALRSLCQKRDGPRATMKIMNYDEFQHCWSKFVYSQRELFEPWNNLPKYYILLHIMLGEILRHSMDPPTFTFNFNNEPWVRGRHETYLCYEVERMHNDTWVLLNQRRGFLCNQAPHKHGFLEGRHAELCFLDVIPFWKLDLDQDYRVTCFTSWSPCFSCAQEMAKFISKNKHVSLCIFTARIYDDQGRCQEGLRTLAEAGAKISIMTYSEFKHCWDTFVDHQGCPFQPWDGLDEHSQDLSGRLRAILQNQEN

[13] = growth suppression of beta-catenin-knockout colon cells, dose response, cell-based, HCT116, human colon tumor (AID 1045); assay type: functional;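 further: HCT116 colon tumor cells with beta catenin knocked out; cells exposed to compound for 60 hours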
[14] = growth suppression of PTEN-null colon cells, dose response, cell-based, HCT116 PTEN knockout (AID 1047); assay type: functional;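 further: HCT116 colon tumor cells with PTEN knocked out; cells exposed to compound for 60 hours before readout; potency for loss of cell viability measured by luminescence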
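Wherever AC50 is given: cells exposed to compound for roughly 70 hours or longer before luminescence read.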

For Cc1ccc(N2C(S)=NC3c4ccccc4OC2(C)C3C(=O)N(C)C)cc1 (stereo unspecified), the IC50 [1] was > 50 µM (inconclusive).

For O=C(Nc1ccc(O)cc1)/C(=C\c1ccncc1)NC(=O)c1ccccc1, the IC50 [2] was 27.7 µM (active).

For COc1ccc(-c2ccc(F)cc2)cc1[C@H]1[C@H]2C=CC[C@@H](C)[C@@H]2C(=O)N1Cc1ccccc1, the IC50 [3] was > 80 µM (inactive).

In the case of CSCCC(NC(=O)c1cccc(C)c1)C(=O)OCC(=O)NC(=O)c1cccn1C (stereo unspecified), the IC50 [1] is reported as 39 µM (active).

For COc1ccc(OCC(=O)N2CCN(Cc3ccc(SC)cc3)CC2)cc1, the IC50 [1] was > 50 µM (not active).

For COc1cc(C(=O)Nc2cc(C)c(OCC(=O)N3CCOCC3)c(C)c2)cc(OC)c1OC, the IC50 [3] was > 80 µM (inactive).

For C=C(C)COc1ccc(-c2n[nH]cc2-c2ccc(OC)c(OC)c2)c(O)c1, the EC50 [4] was 2.48 µM (active), the AC50 [5] was 0.882 µM (active) and the EC50 [6] was 2.4 µM (active). The EC50 [7] was 8.31 µM (active), the EC50 [8] was 1.84 µM (active) and the IC50 [9] was 34.3 µM (inactive).

In the case of COc1ccc(/C=N\NC(=O)c2ccccc2F)cc1COc1ccc(F)cc1F, the IC50 [9] is reported as > 80 µM (inactive).

In the case of C/C(=C/C(=O)N1CCN(C)CC1)C(=O)O, the EC50 [10] is reported as 36.8 µM (active) and the IC50 [1] is reported as > 50 µM (not active).

For CCN(CC)Cc1nc(O)c2c(n1)-c1ccccc1CC2(CC)CC, the CC50 [11] was > 40 µM (active).

In the case of CCCCC(=O)Nc1sc(C(=O)N(CC)CC)c(C)c1C(=O)OC, the IC50 [12] is reported as 49.6 µM (active) and the EC50 [10] is reported as > 195 µM (not active).

With CCOc1cc(C(=O)N/N=C/C(Br)=C/c2ccccc2)cc(OCC)c1OCC the EC50 [13] was 1.34 µM (active), the EC50 [14] was 1.39 µM (active) and the IC50 [9] was > 80 µM (inactive).
